From PubChem BioAssay AID1996
Converted amounts (≈) assume the structure as drawn.

conditions: buffer; pH 7.4; 200.0 µM

| SMILES | solubility kinetic [µg/mL] |
| --- | --- |
| COC(=O)c1ccc(CNC(=O)CSc2nc3ccccc3[nH]2)cc1 | 11.6 (≈ 32.6 µM) |
| Cc1cc(C(=O)Nc2ccccc2[N+](=O)[O-])cs1 | 1.6 (≈ 6.1 µM) |
| O=C(Nc1ccccc1)Nc1ccc2c(c1)CCC2 | 0.4 (≈ 1.59 µM) |
| CCN(C(=O)CCCCC(=O)N(CC)c1ccccc1)c1ccccc1 | > 52.9 |
| COCC(=O)Nc1ccc2c(c1)OCC(=O)N2Cc1ccccc1F | 46.4 (≈ 135 µM) |
| Cc1ccc(N2C(=O)CC(Nc3cccc4ccccc34)C2=O)cc1 (centres undefined) | 3.8 (≈ 11.5 µM) |
| O=C(Nc1cccc(S(=O)(=O)N2CCCCC2)c1)c1ccc(Cl)nc1 | 4.4 (≈ 11.6 µM) |
| Cc1cc(C)c[n+](CC(=O)c2ccccc2)c1.[Br-] | 43.8 |
| Cc1ccc(S(=O)(=O)N2CCN(c3ccccn3)CC2)cc1 | 0.3 (≈ 0.945 µM) |
| Clc1cccc(Cl)c1CO/N=C/c1cccs1 | > 42.9 |
| Cc1cccc(C(=O)Nc2ccc3ccccc3c2)c1 | < 0.6 |
| CC(C)(C)C(=O)Nc1ccc(-c2cnco2)cc1 | > 36.6 |
| O=C(Nc1ccccc1)/C(=C\c1ccccc1)NC(=O)c1ccco1 | 0.7 (≈ 2.11 µM) |
| C/C(=N/NC(=O)CNC(=O)c1cccnc1)c1ccco1 | > 42.9 |
| Cc1c(NC(=O)CN2CCCC(C)C2)ccc2nsnc12 (centres undefined) | 42.6 (≈ 140 µM) |
| Cc1c(NC(=O)CSCc2ccccc2)cccc1C(=O)O | > 47.3 |
| COc1cc(/C=C/C(=O)NC(=O)c2ccccc2O)ccc1O | > 47 |
| CC(=O)c1c(C)[nH]c(C(=O)COC(=O)CCNS(=O)(=O)c2ccc(C)c(C)c2)c1C | 11 (≈ 25.3 µM) |
| Cc1c(C)n(CCN(C)C)c2ncnc(NCc3ccccc3)c12 | 42.9 (≈ 133 µM) |
| COc1cccc(CNC(=O)CCCc2cn(C)c3ccccc23)c1 | 6.1 (≈ 18.1 µM) |
| O=C(Nc1cccc(Cl)c1)C1CCN(C(=O)c2cccs2)CC1 | 48.4 (≈ 139 µM) |
| CSc1ccccc1NC(=O)CN(C)C(C)C(=O)NCc1ccc2c(c1)OCO2 (centres undefined) | 16 (≈ 38.5 µM) |
| Cc1nc(N)c(CC(Br)CBr)c(Cl)n1 (centres undefined) | 49.1 (≈ 143 µM) |
| COc1ccsc1NC(=O)OCc1ccc(Cl)cc1 | 19.3 (≈ 64.8 µM) |

| SMILES | solubility kinetic [µg/mL] |
| --- | --- |
| COc1ccccc1-c1cc(-c2ccccc2)nc(=O)[nH]1 | > 41.7 |
| O=C(c1cc2cc(F)ccc2[nH]1)N1CCN(c2cccc(Cl)c2)CC1 | 0.5 (≈ 1.4 µM) |
| COc1ccc(NC(=O)c2cc3ccccc3[nH]2)cc1 | 1.5 (≈ 5.63 µM) |
| CSc1nccn1C(=O)c1ccccc1[N+](=O)[O-] | > 39.5 |
| CC1CC(C)CN(C(=O)COC(=O)/C=C/c2ccco2)C1 (centres undefined) | > 43.7 |
| Fc1ccc2nc(N3CCCC3)sc2c1 | 15.6 (≈ 70.2 µM) |
| COc1ccc(OC)c(C(=O)COC(=O)c2cccnc2SC)c1 | 4.2 (≈ 12.1 µM) |
| Cc1ccc2ncnc(Oc3ncccc3[N+](=O)[O-])c2c1 | 34.7 (≈ 123 µM) |
| CC1CCCN(C(=O)c2cc(-c3ccco3)nc3ccccc23)C1 (centres undefined) | > 48.1 |
| COc1ccc(C)cc1CN1C(=O)c2ccccc2C1=O | 4 (≈ 14.2 µM) |
| N#Cc1ccc(S(=O)(=O)Nc2ccc3ccccc3n2)cc1 | 27 (≈ 87.3 µM) |
| COc1ccc2nc(C)cc(Nc3ccc(C)cc3)c2c1.Cl | 30.5 |
| CC1CC(C)(C)NC(=S)N1CCCC(=O)NCc1ccccc1 (centres undefined) | > 50 |
| CC(O)CN1CC(O)=C(c2nc3ccccc3s2)C1=N (centres undefined) | 17.8 (≈ 61.5 µM) |
| O=C(/C=C/c1ccco1)NCCc1ccc(F)cc1 | 10.3 (≈ 39.7 µM) |
| CCOC(=O)C1CCN(C(=O)C(C)Sc2nnc3ccccn23)CC1 (centres undefined) | > 54.4 |
| COc1ccccc1NC(=O)CC1CCCC1 | > 35 |
| CC(CCc1ccccc1)NC(=O)CCc1cn(C)c2ccccc12 (centres undefined) | 6.2 (≈ 18.5 µM) |
| CCn1cc(CCC(=O)NCCN2CCOCC2)c2ccccc21 | 48.9 (≈ 148 µM) |
| CCOc1ccc(NS(=O)(=O)c2cc(NC(=O)C3CC3)ccc2C)cc1Br | 3 (≈ 6.62 µM) |
| Cc1ccc(/C=C(\C#N)C(=O)NC(C)C)o1 | > 32.7 |
| CSc1ccc(Cl)c(C(=O)Nc2cc(S(=O)(=O)N3CCOCC3)ccc2N2CCOCC2)c1 | 3.4 (≈ 6.64 µM) |
| O=c1cc(C(F)(F)F)[nH]c2ccc(OC(F)(F)F)cc12 | > 44.6 |
| Nc1c([N+](=O)[O-])cc(-c2cnc[nH]2)cc1[N+](=O)[O-] | < 0.1 |

| SMILES | solubility kinetic [µg/mL] |
| --- | --- |
| CCOC(=O)c1c(NC(=O)CN2CCN(C(=O)c3ccco3)CC2)sc(C(N)=O)c1C | 5.6 (≈ 12.5 µM) |
| O=C(c1ccccc1)c1ncc[nH]1 | > 25.8 |
| CC1CCCN(C(=O)C2CCN(C(=O)Nc3ccccc3)CC2)C1 (centres undefined) | > 49.4 |
| O=C(NNC(=S)NCCCN1CCOCC1)c1ccncc1 | > 48.5 |
| COc1ccc(Cl)cc1NS(=O)(=O)c1cn(C)nc1C | > 47.4 |
| CC1=CC(C)(C)N2C(=O)C(=Nc3ccc(O)cc3)c3cccc1c32 | 9.4 (≈ 29.5 µM) |
| O=Cc1cn(CC(=O)Nc2ccccc2)c2ccccc12 | 4.1 (≈ 14.7 µM) |
| O=C(CC12CC3CC(CC(Br)(C3)C1)C2)NC1CCCC1 | 36.4 (≈ 107 µM) |
| Cl.O=C(Nc1cccc(Cl)c1)NC1CCN(C2CCCCC2)C1 (centres undefined) | > 53.7 |
| Cc1sc2ncnc(NCC(O)c3ccc([N+](=O)[O-])cc3)c2c1C (centres undefined) | 5.5 (≈ 16 µM) |
| CCNCc1ccc(OCc2cccs2)c(OCC)c1 | > 43.7 |
| COC(=O)c1ccc(/C=N/OCC(=O)NCc2ccc(F)cc2)cc1 | 10.3 (≈ 29.9 µM) |
| Cc1ccc(-n2c(O)c(C=NCCCn3ccnc3)c(=O)[nH]c2=O)cc1 | > 53 |
| Cc1ccccc1N=C1c2ccccc2C(=O)C1[N+](=O)[O-] (centres undefined) | 31.7 (≈ 113 µM) |
| CCSc1ccccc1C(=O)N=C1NC(=O)CC2C(=O)NCCN12 (centres undefined) | 16.9 (≈ 48.8 µM) |
| CC(C)=CC(=O)OCc1csc(CC(=O)Nc2ccccc2C)n1 | > 51.7 |
| O=C(COc1ccc(Cl)cc1)Nc1ccc2c(c1)OCO2 | < 0.7 |
| CCOc1ccc(Br)cc1CNCc1cccnc1 | > 48.2 |
| O=C(NCc1ccncc1)C(=O)Nc1ccc2c(c1)OCO2 | 9.5 (≈ 31.7 µM) |
| O=c1[nH]c2ccc(S(=O)(=O)Nc3ccc(Cl)cc3)cc2[nH]1 | 2.2 (≈ 6.8 µM) |
| Cl.Oc1ccccc1C1NCc2ccccc2-n2cccc21 (centres undefined) | 32.2 |
| O=C(COC(=O)c1cnc(Cl)c(Cl)c1)NC1CC1 | > 43.4 |
| NC(=S)NC1CC2CC1C1C=CCC21 (centres undefined) | > 31.2 |
| CC(NC(=O)CNC(=O)C1CCCCC1)c1cccc(Cl)c1 (centres undefined) | 42.6 (≈ 132 µM) |

| SMILES | solubility kinetic [µg/mL] |
| --- | --- |
| COc1cc(OC)c(C(=O)OCC(=O)NC2CCCCCCC2)cc1OC | > 56.9 |
| Cc1nc(C)c(/C(O)=C\c2nc3ccc([N+](=O)[O-])cc3oc2=O)o1 | > 49.4 |
| Cc1[nH]c2ccccc2c1CN1CCN(c2ccccn2)CC1 | 44.4 (≈ 145 µM) |
| O=C(NCc1cccnc1)C12CC3CC(CC(Cl)(C3)C1)C2 | 43.2 (≈ 142 µM) |
| Cc1cccc(N=C2NC(=O)C(CO)(CO)S2)c1 | 22.4 (≈ 84.1 µM) |
| CC1CN(S(=O)(=O)c2cc(C(=O)N3CCCCC3C)ccc2Cl)CC(C)O1 (centres undefined) | > 62.2 |
| Cc1ccc(C(=O)ONC(=O)c2ccc(Cl)cc2)cc1[N+](=O)[O-] | 46.8 (≈ 140 µM) |
| O=C(COC(=O)C1=COCCO1)NCc1ccc(F)cc1 | 40.3 (≈ 136 µM) |
| COc1ccccc1NS(=O)(=O)c1ccc2oc(=S)[nH]c2c1 | > 50.5 |
| Cc1ccc(C(=O)N2CCC(C(=O)c3c(C)cc(C)cc3C)CC2)cc1 | 24.1 (≈ 69 µM) |
| COc1cc([N+](=O)[O-])ccc1NC(=O)/C=C/C(=O)O | > 39.9 |
| COc1ccc(CC(=O)NC2CC(C)(C)NC(C)(C)C2)cc1OC.Cl | > 55.6 |
| N#Cc1c(-c2ccc(Cl)cc2)ccnc1N1CCOCC1 | 3 (≈ 10 µM) |
| Cc1ccc(C(=O)OCC(=O)N(Cc2ccccc2)C(C)C)cc1C | 16.8 (≈ 49.5 µM) |
| O=C1COc2ccc(S(=O)(=O)N3CCCCC3)cc2N1 | 43.3 (≈ 146 µM) |
| CCSc1ncc(Cl)c(C(=O)Nc2ccccc2C)n1 | 0.5 (≈ 1.62 µM) |
| CCC(=O)Nc1ccc(S(=O)(=O)Nc2nccs2)cc1 | 45.5 (≈ 146 µM) |
| Cc1cc(OC(=O)N(C)C)nc(SCc2c(Cl)cccc2Cl)n1 | 6.5 (≈ 17.5 µM) |
| N#Cc1cn(-c2cccc(C(F)(F)F)c2)c(=O)[nH]c1=O | > 42.2 |
| CCOc1ccccc1CNCCNCC(C)O.Cl (centres undefined) | > 48.8 |
| Cc1ccc(OCCCCNC(C)c2ccccc2)c(C)c1 (centres undefined) | 32.2 (≈ 108 µM) |
| O=C(/C=C/c1ccccc1[N+](=O)[O-])N1CCc2ccccc2C1 | 20.3 (≈ 65.8 µM) |
| Br.CCc1ccc(C2=CSC3=NCCN23)cc1 | > 46.7 |
| COC(=O)[C@@H](C)NC(=O)c1ccc2oc(CCc3ccccc3)nc2c1 | 41 (≈ 116 µM) |

| SMILES | solubility kinetic [µg/mL] |
| --- | --- |
| COc1ccc(C(=O)OCC(=O)Nc2ccccc2)cc1[N+](=O)[O-] | 3 (≈ 9.08 µM) |
| Cc1cccnc1N1C(=O)c2ccc(C(=O)O)cc2C1=O | > 42.3 |
| O=C(O)c1cncc(SCc2ccccc2)n1 | 34.5 (≈ 140 µM) |
| COc1ccc(Cl)cc1NC(=O)CN1C(=O)NC(Cc2c[nH]c3ccccc23)C1=O (centres undefined) | 6.7 (≈ 15.7 µM) |
| NC(=O)Nc1ccc(C(=O)OCC(=O)NC2CCCCC2)cc1 | 37.5 (≈ 117 µM) |
| CCN(CC)C(=O)CCS(=O)(=O)c1cccc2nonc12 | 45.2 (≈ 145 µM) |
| O=C(CSc1nnc(-c2ccncc2)o1)Nc1cc(Cl)ccc1C(=O)O | > 58.6 |
| CCNc1nc(=S)nc(NCc2ccccc2)[nH]1 | 4.6 (≈ 17.6 µM) |
| Cl.NCc1ccc2[nH]c(=O)[nH]c2c1 | > 29.9 |
| O=C(Nc1ccc([N+](=O)[O-])cc1)N1CCCCCC1 | > 39.5 |
| CN(Cc1ccccn1)Cc1nc(-c2ccc(Cl)cc2)no1 | 35.5 (≈ 113 µM) |
| CC(=O)c1ccc(N2CCC(C)CC2)c(F)c1 | 6 (≈ 25.5 µM) |
| CCOC(=O)Cc1csc(N(C)C)n1 | 25.4 (≈ 119 µM) |
| Cc1ccc(C)c(OCCNc2ncccc2[N+](=O)[O-])c1 | 0.3 (≈ 1.04 µM) |
| Cc1ccccc1C(=O)NC1CCCN(Cc2ccccc2F)C1 (centres undefined) | 43.2 (≈ 132 µM) |
| CCc1ccc(C(C)NC(=O)c2cccs2)cc1 (centres undefined) | 9 (≈ 34.7 µM) |
| CC1CCCN(C(=O)CNC(=O)c2ccco2)C1 (centres undefined) | > 37.5 |
| O=C(c1c(F)cccc1F)N(Cc1cccs1)C1CCCC1 | 30.3 (≈ 94.3 µM) |
| O=C(Nc1cccc2ccccc12)c1cccc(F)c1 | 5.8 (≈ 21.9 µM) |
| Clc1ccccc1/C=C/c1nc(-c2cccnc2)no1 | 0.8 (≈ 2.82 µM) |
| COc1ccccc1N1C(=O)CC(N(O)c2ccccc2)C1=O (centres undefined) | > 46.8 |
| CCc1nnc(NC(=O)c2cc(C)nc3ccccc23)s1 | > 44.8 |
| O=[N+]([O-])c1ccc(NCc2ccc(Cl)cc2)c2ccncc12 | 0.3 (≈ 0.956 µM) |
